From a melting point compilation (Tetko et al.; mined from patent text by program, amines drawn as free bases though some values may be those of a salt)
Residues, ends and D or L forms follow the SMILES beside them. *: point of attachment. Tos = Cc1ccc(S(=O)(=O)*)cc1

Row | melting point [°C] | SMILES
1 | 144 to 146 | CCCc1c(C(=O)NCc2ccc3c(Br)c(OCC(=O)OC)ccc3c2)cnn1-c1ccccc1
2 | 87.5 to 89.5 | O=C(NC(Cc1ccccc1)C1CC(Cc2ccccc2)=NO1)OCc1ccccc1 (stereo not given)
3 | 156 to 158 | O=C(c1cc2[nH]nc(-c3cc4cc(CO)ccc4[nH]3)c2s1)N1CCN(c2ccc(F)cc2)CC1
4 | 132 to 134 | CCCc1c(OC(=S)N(C)C)ccc2c(=O)cc(C(=O)OCC)oc12
5 | 165 to 168 | CCOC(Cc1ccc2oc(Cc3nc(-c4ccccc4)oc3C)cc2c1)C(N)=O (stereo not given)
6 | 123 to 124 | COc1ccc(-n2nc(C(F)F)cc2-c2ccc(S(C)=O)cc2)cc1 (stereo not given)
7 | 89.5 to 91.9 | CC(=O)NC[C@H]1CN(c2ccc(-n3nccc3-c3ccc(C)cc3)c(F)c2)C(=O)O1
8 | 144 to 145 | COc1ccc(C=Cc2ccc(C)cc2)c(Cl)c1
9 | 255 to 256 | Cc1cc(C)n2nc(NS(=O)(=O)c3ccccc3[N+](=O)[O-])nc2n1
10 | 201 to 202 | CCOC(=O)CCC(=O)c1cnc2c(OC)cccc2c1NCc1ccccc1
11 | 262 to 264 | CCn1c(NC)nc(=O)c2ccccc21
12 | 190 to 192 | CC(=O)Oc1ccc(Br)cc1Cc1cc(Cl)cc(Cc2cc(Br)ccc2O)c1OC(C)=O
13 | 166 to 169 | Cc1ccc(-n2nc3c(cc2=O)CCc2sc(CO)cc2-3)cc1
14 | 169 to 173 | CCNS(=O)(=O)c1cccc(OCc2nc3ccccc3n2C)c1
15 | 108 to 110 | OC1Cc2cc(Br)ccc2Sc2ccccc21 (stereo not given)
16 | 121 to 124 | CC#Cc1cc(Cl)nc(Nc2ccccc2)n1
17 | 182 to 185 | CN1C2CCCC1CC(NC(=O)c1cccc3oc(-c4ccccc4)nc13)C2 (stereo not given)
18 | 228 to 229 | Oc1ccc(-c2cc3cc(Br)ccc3o2)cc1
19 | 124 to 126 | COC(=O)C1=C(C)Nc2ccccc2NC1c1cccc([N+](=O)[O-])c1 (stereo not given)
20 | 165 to 168 | O=C(NCCCNS(=O)(=O)c1ccc(Oc2ccccc2)cc1)P(=O)(O)O

Row | melting point [°C] | SMILES
21 | 128 to 129 | Cc1nc(OCc2c(C(C)C)nnn2-c2c(Cl)cccc2Cl)ccc1N(C)S(=O)(=O)c1ccc(C(=O)O)cc1
22 | 221 to 222 | CSc1nc(N)nc(-c2ccccc2)c1-c1ccc(=O)n(C(C)C)n1
23 | 283 | COc1ccc(-c2[nH]nc3c2C(=O)c2c(NC(=O)Cc4ccc(N)cc4)cccc2-3)cc1
24 | 147 to 148 | CC(c1ccc(-c2ccccc2)c(F)c1)c1csc(NC(=O)c2ccccc2)n1 (stereo not given)
25 | 197 | COc1cc(Nc2nccc(-c3c[nH]c4ccccc34)n2)cc(OC)c1OC
26 | 222 to 224 | COCC#Cc1cc(F)c2ncc(C(=O)NCc3ccc(Cl)cc3)c(O)c2c1
27 | 176 to 177 | CCCS(=O)(=O)c1cc([C@H]2CC[C@H](c3cc(OC)c(OC)c(OC)c3)O2)cc(OC)c1OCc1ccccc1 (relative stereo)
28 | 170 to 173 | COc1ccc(S(=O)(=O)c2c(Br)cc(CC(=O)O)cc2Br)cc1C(C)C
29 | 142 | COc1cc(-c2nc3ccc(OCCCN(C)C)cc3n2Cc2ccccc2C(F)(F)F)cc(OC)c1OC
30 | 83.5 to 84.5 | COc1ccc(N=C(CCc2ccccc2Cl)c2ccccc2)cc1
31 | 127 to 128 | COc1ccc(C(=O)Nc2ccccc2C(C)(O)c2ccccn2)cc1 (stereo not given)
32 | 134 to 136 | CCc1cc(C(=O)c2ccccc2Cl)c(-n2c(C)nnc2Cc2cccc(OC(N)=O)c2Cl)s1
33 | 196 to 198 | Cc1nc(-n2ccc(OCC3CCCC3)cc2=O)sc1C(=O)NCc1ccccc1
34 | 121 to 123 | C/C(=C\c1ccc(OC(C)C)cc1Oc1ncc(C(F)(F)F)cc1Cl)C(=O)NS(=O)(=O)NCCc1ccccn1
35 | 159 to 160 | O=C(OCN1C(=O)c2ccccc2C1=O)c1ccccc1[N+](=O)[O-]
36 | 138 to 140 | O=c1cnc(-c2ccc(F)c(Br)c2)nn1Cc1ccc(Cl)nc1
37 | 84 to 85 | CCCCCCCCCCC(O)c1ccc2oc([N+](=O)[O-])c(-c3ccccc3)c2c1 (stereo not given)
38 | 173 to 174 | Oc1ccc(Cn2ccn(C3CCc4ccccc4C3)c2=S)cc1O (stereo not given)
39 | 201 to 206 | Cn1nc(C(=O)NCc2ccc(Cl)cc2)c(=O)c2cc(C#CCO)cnc21
40 | 165 to 167 | Cc1cc(-c2ccc(-c3c(Cc4ccccc4)oc4ccccc34)cc2)cc(C)c1OS(=O)(=O)c1ccc(C(=O)O)c(O)c1

Row | melting point [°C] | SMILES
41 | 337 to 339 | Oc1ccc(-c2cc3cc(O)cc(CBr)c3o2)cc1
42 | 195 to 198 | COc1ccc(C2Sc3cc(Sc4ccccc4)ccc3NC(=O)C2O)cc1 (stereo not given)
43 | 68 to 71 | CN(C(=O)CCC#Cc1ccccn1)c1ccccc1
44 | 90.3 to 95.6 | C=C=COc1ccc2cc3ccccc3cc2c1
45 | 156 | CN1[C@@H](c2cccc(I)c2)c2ccccc2S1(=O)=O
46 | > 300 | O=c1c(Cl)nc2ccccc2n1-c1ccc(Cl)cc1
47 | 88 to 90 | O=C(CCCNC(=O)C(=O)c1cn2c3c(cccc13)CCC2)NOCc1ccccc1
48 | 185 to 188 | CC(=O)Nc1c(C(=O)c2ccccc2)[nH]c2c(Cl)cccc12
49 | 130 | CC1COC(Cn2nc[nH]c2=S)(c2ccc(Oc3ccc(Cl)cc3)cc2Cl)O1 (stereo not given)
50 | 154 | CC(=O)N(c1ccc(F)c(Cl)c1)c1ncnc2cc(OCCCN3CCOCC3)c([N+](=O)[O-])cc12
51 | 113 to 114 | NCCC1(O)c2ccccc2CCc2ccccc21
52 | 137 to 140 | COc1ccccc1N1CCN(CCCNC(=O)Cc2cccc3c(=O)c(C)c(-c4ccccc4)oc23)CC1
53 | 181 | O=C(CC(c1ccccc1)c1ccccc1)Nc1ccccc1Cl
54 | 176 to 177 | CCc1nc2c(N)nc3ccccc3c2n1CCCCS(=O)(=O)NCc1ccc(OC)cc1
55 | 56 to 58 | CNn1cccc1C(=O)c1ccccc1Cl
56 | 69 | CCCCCCCCSCC(=O)[C@H](Cc1ccccc1)NC(=O)[C@H](CC(C)C)NC(=O)OCc1ccccc1
57 | 101 to 103 | CCn1nc(C)c2c(Cl)cc(-c3ccccc3)nc21
58 | 175 | O=C(Nc1ccc2ccc(-c3ccccc3)nc2n1)c1cccc(Cl)c1
59 | 135 to 136 | Cc1onc(CCc2ccccc2)c1C(N)=O

The next lines start with the compound.

Row | SMILES | melting point [°C]
60 | Cc1c(SCCCN2CCN(Cc3ccc(Cl)s3)CC2)ccnc1CSc1nc2cc(F)c(F)cc2[nH]1 | 79 to 82
61 | CS(=O)(=O)c1ccc(-c2cnn(CC(F)(F)F)c(=O)c2NCCCO)cc1 | 152 to 154
62 | Nc1n[nH]c2ccc(Cl)cc12 | 162 to 163
63 | CCCCCCNC(=O)[C@@H](NC(=O)OC(C)(C)C)C(C)C | 74 to 76
64 | CC(C)(S)CN1CCN(C(=O)c2ccc(O)cc2)CC1 | 46
65 | CCc1cc2[nH]c(=O)cc(O)c2c(CC)n1 | 322 to 325
66 | Cc1ccc(S(=O)(=O)N2CCC[C@H]2C(=O)N[C@@H](CCC(=O)O)C(=O)O)cc1 (Tos-Pro-Glu-OH) | 164 to 166
67 | Cn1ccnc1S(=O)(=O)c1ccccc1Cl | 156 to 159
68 | COCCCCCCOc1ccc(C#Cc2ccc(C(=O)O)cc2)cc1C12CC3CC(CC(C3)C1)C2 | 241 to 242
69 | CC(O)(CF)C(=O)Nc1ccc(S(=O)(=O)c2ccncc2)cc1 (stereo not given) | 209 to 211
70 | N#CCSC(=S)SCc1ccc(Cl)cc1 | 41 to 43
71 | CS(=O)(=O)O[C@H]1CC[C@H](Nc2ccnc3cc(Cl)ccc23)CC1 | 154 to 159
72 | CCCCNC(=O)c1nc2cnn(CC)c2nc1OCC | 115 to 117
73 | COC(=O)c1[nH]ccc1OC(C)C | 77 to 79
74 | Clc1cccc(-c2nnnn2-c2cccnc2)c1Cl | 124 to 126
75 | Cc1nnc2ccc(-c3ccc(C(C)(C)C)cc3)nn12 | 142 to 145
76 | Cn1c2c(c3ccc(F)cc31)C(=O)CCC2 | 174 to 175
77 | CSc1cc(Cl)cc(C(=O)O)c1 | 148 to 150
78 | Cc1nc(C)c(CCl)cc1CCl | 108 to 109
79 | COc1c(F)cc(NN)cc1F | 60.5 to 62.3
80 | CCOc1cnc(C2=NC(=O)C(C)(C(C)C)N2)c(C(=O)O)c1 (stereo not given) | 140 to 144

Row | SMILES | melting point [°C]
81 | CCOC(=O)c1cn(C2CC2)c2c(F)c(N3CCNC(C)C3)c(F)c(N)c2c1=O (stereo not given) | 132 to 134
82 | C#Cc1cccc([C@H]2C[C@H]2NC(=O)Nc2ccc(Cl)cn2)c1 (racemic) | 148 to 150
83 | O=C(OCc1ccccc1)C1N2C(=O)C(NC(c3ccccc3)(c3ccccc3)c3ccccc3)C2SC12CCN(c1ccccc1)CC2 (stereo not given) | 200 to 201
84 | FC(F)(F)c1cc(Cl)c(-n2cc(C3CC3(Br)Br)c(C=C(Br)Br)n2)c(Cl)c1 (stereo not given) | 106 to 107
85 | NS(=O)(=O)OCCOc1cccc(O)c1 | 56 to 60
86 | Cc1c(C(=O)O)nc2c(=O)[nH]c3cc(F)ccc3n12 | > 250
87 | CCCCCCCCCCN1CC(C(=O)OC)N(S(=O)(=O)c2ccc(-c3ccc(Br)cc3)cc2)CC1=O (stereo not given) | 117 to 118
88 | CCCCCCCCCCCCCCCCCCCCC(=S)NCCN1CCOCC1 | 61
89 | N=c1ccccn1Cc1ccccc1 | 52 to 54
90 | Cc1ccc(NC(=O)C(C)(C)C)c(-c2ccnc(OCC(F)(F)F)n2)c1 | 126 to 128
91 | CC(ON1C(C)(C)CNC(=O)CC1(C)C)c1ccccc1 (stereo not given) | 125 to 127
92 | CCCCNS(=O)(=O)CC(O)C(O)C(CC1CCCCC1)NC(=O)c1ccc(O)c(O)c1 (stereo not given) | 162 to 165
93 | CCCCc1ccc(NC(=O)CBr)c([N+](=O)[O-])c1 | 56 to 57
94 | Cc1c(C)c2c(c(C)c1O)SC(CCCO)O2 (stereo not given) | 116 to 117
95 | COc1cc(OC)cc(OC(=S)N(C)C)c1 | 77 to 78
96 | CCOc1c(-c2ccc(F)cc2)c(=O)c1=O | 126 to 129
97 | Nc1nc(N)nc(-c2cnccn2)n1 | > 250
98 | C=C(C)CN(CCC12CC3CC(CC(C3)C1)C2)C(=O)NCCCc1ccncc1 | 108 to 109
99 | CC(=O)NCC1CN(c2ccc(N3CCN(C=O)CC3)c(F)c2)C(=O)O1 (stereo not given) | 190 to 194
100 | O=C1c2ccc(OCCN3CCOCC3)cc2C(=O)c2ccc(OCCN3CCOCC3)cc21 | 200 to 201
